Experimental data reported in US11155586B2, “Cystine knot scaffold platform” (Genentech, Inc., priority 2015, dated 2021).
Positions of bridges follow the written chain, without caps; N, C: chain ends. Residues, ends and D or L forms follow the SMILES beside them.

Columns and labels:
VEGF-A and KDR = molecular target: T1, VEGF-A and KDR (Homo sapiens, UniProt P15692); assay: Competition ELISA, KDR-VEGF interaction; assay type: binding
T1 sequence (P15692 207-395): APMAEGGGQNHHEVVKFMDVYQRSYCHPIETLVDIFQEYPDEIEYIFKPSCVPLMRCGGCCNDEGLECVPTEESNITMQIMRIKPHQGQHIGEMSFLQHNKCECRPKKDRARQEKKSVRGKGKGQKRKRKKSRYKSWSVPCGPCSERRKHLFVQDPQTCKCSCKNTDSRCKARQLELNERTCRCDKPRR
Procedure: Binding specificity of each peptide was established by competition ELISA. […] After blocking with block buffer (PBS with 0.5% BSA and 0.05% TWEEN®20) for 2 hours at room temperature, the receptor-Fc fusions or biotinylated receptors were serially diluted using assay buffer (PBS with 0.5% BSA and 0.05% TWEEN®20) and incubated for 1 hour at room temperature. […] Competition ELISA was conducted in an identical fashion as described above except after blocking, a mixture of serially diluted peptide containing a constant concentration of receptor-Fc fusion or biotinylated receptor (concentration of receptor was set to EC60) was added and incubated for 1 hour. All recombinant human proteins and antibodies were purchased from R &D Systems (Minneapolis, Minn.).

VEGF human 165 = molecular target: T2, VEGF human 165 (Homo sapiens, UniProt P15692); assay: SPR binding assay; conditions: for ka / kd: human 165, Table 30
T2 sequence (P15692 27-191 isoform P15692-4): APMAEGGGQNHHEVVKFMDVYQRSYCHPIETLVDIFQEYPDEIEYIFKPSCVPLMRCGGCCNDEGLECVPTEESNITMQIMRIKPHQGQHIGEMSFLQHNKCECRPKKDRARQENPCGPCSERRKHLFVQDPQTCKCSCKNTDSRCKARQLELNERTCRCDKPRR
Procedure: (§1) Depending on the format of the assay either a streptavidin sensor (SA) or a dextran-coated (CM5) sensor was utilized as described below.
(§2) For use with the SA sensor, VEGF-A was first biotinylated (no more than 2 biotin/VEGF-A) by incubating the protein with EZ-link NHS-PEG4-Biotin (Pierce) in a 1:1.5 molar ratio respectively, in PBS for 2 hours on ice. Reaction was then quenched by addition of 10 molar excess of Glycine pH 8.0 and the sample was buffer exchanged into PBS using an Amicon 0.5 mL 3000 MWCO ultra-centrifugal filters (EMD Millipore). The biotinylation state of the protein was verified by LC-MS analysis. Biotinylated VEGF-A was then captured on the surface until a resonance unit (RU) signal of about ˜400. For immobilization of VEGF-A on CM5 sensor, the surface was first activated with a mixture of N-ethyl-N′-(3-dimethylaminopropyl)carbodiimide hydrochloride and N-hydroxysuccinimide (EDC/NHS) according to the supplier instructions. VEGF-A was then diluted into coupling buffer (0.1 M Acetate Buffer, pH 5.0) and injected until the signal reached about ˜400 RU followed by a wash with 1 M ethanolamine pH 8.0 to quench remaining activated sites.
(§3) Following the capture step, a series of the peptide concentrations were prepared in HBS-EP buffer with matching DMSO concentrations to 0.1% and injected at a flow rate of […]. The resulting sensorgrams were then analyzed using a 1:1 binding model to obtain kinetic data and affinities using Scrubber 2.0 (BioLogic Software).

VEGF mouse 164 = molecular target: T3, VEGF mouse 164 (Mus musculus, UniProt Q00731); assay: SPR binding assay; conditions: for ka / kd: mouse 164, Table 30
T3 sequence (Q00731 27-190 isoform Q00731-2): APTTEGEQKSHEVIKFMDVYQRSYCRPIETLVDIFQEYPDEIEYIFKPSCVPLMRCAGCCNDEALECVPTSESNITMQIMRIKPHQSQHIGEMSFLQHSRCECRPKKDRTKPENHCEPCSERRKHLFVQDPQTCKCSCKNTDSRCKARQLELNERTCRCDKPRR
Procedure: as §1, §2, §3

rabbit VEGF-A = molecular target: T4, rabbit VEGF-A (Oryctolagus cuniculus, UniProt G1T1L9); assay: SPR binding assay; conditions: for ka / kd: rabbit, Table 30
T4 sequence (G1T1L9 1-398): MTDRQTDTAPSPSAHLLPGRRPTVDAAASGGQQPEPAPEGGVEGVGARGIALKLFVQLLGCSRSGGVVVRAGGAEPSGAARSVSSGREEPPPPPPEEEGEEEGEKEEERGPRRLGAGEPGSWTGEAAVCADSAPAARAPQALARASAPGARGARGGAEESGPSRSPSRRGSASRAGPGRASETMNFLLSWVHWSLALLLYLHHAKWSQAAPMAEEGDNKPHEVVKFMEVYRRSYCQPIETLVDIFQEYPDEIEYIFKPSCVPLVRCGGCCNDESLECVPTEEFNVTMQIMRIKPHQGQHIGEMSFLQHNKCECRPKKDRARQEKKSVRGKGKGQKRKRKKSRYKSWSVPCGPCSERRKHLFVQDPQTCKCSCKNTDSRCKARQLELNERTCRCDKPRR
Procedure: as §1, §2, §3

rat VEGF-A = molecular target: T5, rat VEGF-A (Rattus norvegicus, UniProt P16612); assay: SPR binding assay; conditions: for ka / kd: rat, Table 30
T5 sequence (P16612 27-139 limits assumed): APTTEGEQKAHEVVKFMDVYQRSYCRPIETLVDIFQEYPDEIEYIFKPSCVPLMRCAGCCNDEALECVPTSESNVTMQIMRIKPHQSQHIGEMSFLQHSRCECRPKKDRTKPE
Procedure: as §1, §2, §3

[1] = system: hVEGF-A mutants (Y21A, K48A, Q89A, F17A/M81A); assay: SPR binding assay, hVEGF-A mutants; design: species or system human; kd: unit not given here
Procedure: as §1, §2, §3
The binding interface of VEGF_CKP9.54.90 on VEGF-A overlaps with that of the natural receptors and G6.31 antibody (FIGS. 7 and 8). […] However, K48A mutation enhanced the binding of VEGF_CKP9.54.90 by ˜2-3 fold, a behavior that is similar to that observed with the G6.31 antibody (Fuh et al. (2006) J. Biol. Chem. 281, 6625-6631).

trypsin = assay: Trypsin protease activity, peptide substrate cleavage assay; assay type: biochemical; conditions: FIG. 3

SMILES | IC50 (VEGF-A and KDR) [nM] | Kd (VEGF human 165) [nM] | ka (VEGF human 165) | kd (VEGF human 165) | Kd (VEGF mouse 164) [nM] | ka (VEGF mouse 164) | kd (VEGF mouse 164) | ka (rabbit VEGF-A) | kd (rabbit VEGF-A) | ka (rat VEGF-A) | kd (rat VEGF-A) | Kd ([1]; hVEGF-A mutant K48A) [nM] | ka ([1]; hVEGF-A mutant K48A) | kd ([1]; hVEGF-A mutant K48A) | Kd ([1]; hVEGF-A mutant Q89A) [nM] | ka ([1]; hVEGF-A mutant Q89A) | kd ([1]; hVEGF-A mutant Q89A) | Kd ([1]; hVEGF-A mutant Y21A) [nM] | ka ([1]; hVEGF-A mutant Y21A) | kd ([1]; hVEGF-A mutant Y21A) | also measured
CC[C@H](C)[C@@H]1NC(=O)[C@H](CC(N)=O)NC(=O)[C@@H](NC(=O)CN)CSSC[C@@H](C(=O)N[C@H](C(=O)N[C@H]2CSSC[C@@H](C(=O)NCC(=O)O)NC(=O)[C@H](CO)NC(=O)[C@H](CCC(N)=O)NC(=O)[C@H](Cc3ccc(O)cc3)NC(=O)[C@H](Cc3ccc(O)cc3)NC(=O)[C@H](CCC(N)=O)NC2=O)C(C)C)NC(=O)CNC(=O)[C@H](C)NC(=O)[C@H](CC(C)C)NC(=O)[C@@H]2CSSC[C@H](NC(=O)CNC(=O)[C@H](Cc3c[nH]c4ccccc34)NC(=O)[C@H](Cc3ccccc3)NC(=O)[C@@H]3CCCN3C(=O)[C@H](CC(C)C)NC(=O)[C@H](CCSC)NC1=O)C(=O)NCC(=O)N[C@@H](CCCNC(=N)N)C(=O)N[C@@H](CC(=O)O)C(=O)N[C@@H](Cc1ccccc1)C(=O)N[C@@H](CCC(=O)O)C(=O)N2 [VEGF_CKP9.54.90] (H-GCNIMLPFWGCGRDFECLAGCVCQYYQSCG-OH; disulfide 2-21, 11-17, 23-29; N-terminus and C-terminus assumed) | 0.2 | 0.89 | 1.58 × 10^7 | 1.33 × 10^−2 | 1.31 | 8.71 × 10^6 | 1.01 × 10^−2 | 5.15 × 10^7 | 6.75 × 10^−2 | 1.72 × 10^7 | 1.35 × 10^−2 | 0.19 | 6.04 × 10^7 | 0.0116 | 8.8 | 1.71 × 10^7 | 0.1458 | 3.5 | 3.72 × 10^7 | 0.1202 | disruption of the interaction between VEGF-A and KDR (VEGF-A and KDR; FIGS. 2A and 2B): disrupts; Kd (rabbit VEGF-A): 1.14 nM; Kd (rat VEGF-A): 0.9 nM; binding to VEGF-A mutant F17A/M81A ([1]; F17A/M81A, relative to wild type VEGF-A): reduced binding; enhancement of binding by K48A mutation ([1]; K48A, relative to wild type VEGF-A): 2-3 fold; binding to VEGF-A mutant Q89A ([1]; Q89A, relative to wild type VEGF-A): reduced binding; binding to VEGF-A mutant Y21A ([1]; Y21A, relative to wild type VEGF-A): reduced binding; inhibition of trypsin protease activity (trypsin): do not inhibit
CC[C@H](C)[C@@H]1NC(=O)[C@H](CC(=O)O)NC(=O)[C@@H]2CCCN2C(=O)CNC(=O)[C@@H]2CSSC[C@H](NC(=O)[C@H](CC(=O)O)NC1=O)C(=O)N[C@@H](CC(C)C)C(=O)N[C@@H](C)C(=O)NCC(=O)N[C@H](C(=O)N[C@H](C(=O)N[C@H]1CSSC[C@@H](C(=O)NCC(=O)O)NC(=O)[C@H](CO)NC(=O)[C@H](CC(N)=O)NC(=O)[C@H](Cc3ccc(O)cc3)NC(=O)[C@H](Cc3c[nH]c4ccccc34)NC(=O)[C@H](Cc3c[nH]cn3)NC1=O)C(C)C)CSSC[C@H](NC(=O)CN)C(=O)N[C@@H](CC(=O)O)C(=O)N[C@@H](C(C)C)C(=O)N[C@@H](CCSC)C(=O)N[C@@H](CCC(N)=O)C(=O)N1CCC[C@H]1C(=O)N[C@@H](Cc1ccc(O)cc1)C(=O)N[C@@H](Cc1c[nH]c3ccccc13)C(=O)NCC(=O)N2 [VEGF_CKP9.63.12] (H-GCDVMQPYWGCGPDIDCLAGCVCHWYNSCG-OH; disulfide 2-21, 11-17, 23-29 (inferred); N-terminus and C-terminus assumed) |  |  | 4.65 × 10^6 | 2.01 × 10^−2 |  | 1.04 × 10^6 | 1.32 × 10^−2 | 6.91 × 10^6 | 1.78 × 10^−2 | 6.44 × 10^6 | 2.59 × 10^−2 | 0.33 | 5.30 × 10^7 | 0.017 | 36.5 | 7.43 × 10^6 | 0.47 | 9.84 | 1.99 × 10^7 | 1.48 × 10^−1 | inhibition of trypsin protease activity (trypsin): do not inhibit
CSCC[C@@H]1NC(=O)[C@H](C(C)C)NC(=O)[C@H](CC(=O)O)NC(=O)[C@@H](NC(=O)CN)CSSC[C@@H](C(=O)N[C@H](C(=O)N[C@H]2CSSC[C@@H](C(=O)NCC(=O)O)NC(=O)[C@H](CO)NC(=O)[C@H](CC(N)=O)NC(=O)[C@H](Cc3ccc(O)cc3)NC(=O)[C@H](Cc3c[nH]c4ccccc34)NC(=O)[C@H](Cc3c[nH]cn3)NC2=O)C(C)C)NC(=O)CNC(=O)[C@H](C)NC(=O)[C@H](CC(C)C)NC(=O)[C@@H]2CSSC[C@H](NC(=O)CNC(=O)[C@H](Cc3c[nH]c4ccccc34)NC(=O)[C@H](Cc3ccc(O)cc3)NC(=O)[C@@H]3CCCN3C(=O)[C@H](CCC(N)=O)NC1=O)C(=O)N[C@@H](CCCCN)C(=O)N[C@@H](CCC(N)=O)C(=O)N[C@@H](CC(=O)O)C(=O)N[C@@H](CO)C(=O)N[C@@H](CC(=O)O)C(=O)N2 [VEGF_CKP9.63] (H-GCDVMQPYWGCKQDSDCLAGCVCHWYNSCG-OH; disulfide 2-21, 11-17, 23-29 (inferred); N-terminus and C-terminus assumed) | 10.8 | 382 | 3.40 × 10^5 | 1.30 × 10^−1 | 289 | 5.57 × 10^5 | 1.60 × 10^−1 | 4.24 × 10^5 | 1.30 × 10^−1 | 4.56 × 10^5 | 2.46 × 10^−1 | 28.4 | 5.72 × 10^5 | 0.02 | 2000 | 2.66 × 10^5 | 0.51 | 585 | 7.52 × 10^5 | 0.4814 | Kd (rabbit VEGF-A): 311 nM; Kd (rat VEGF-A): 524 nM
